Results taken from patent US10273226B2, “Pyrazolyl-heteroarylamides as pesticides” (Bayer Animal Health GmbH, priority 2014, dated 2019).

Legend:
Format in all cases: in vivo
[1] = test system: Rhipicephalus sanguineus; experiment: Rhipicephalus sanguineus in vitro contact test with adult brown dog ticks; settings: application rate 5 μg/cm^2 (500 g/ha); after 48 h; ticks dead or moribund
Method: Rhipicephalus sanguineus—In Vitro Contact Tests with Adult Brown Dog Ticks
(§1) For the coating of the test tubes, 9 mg of active ingredient are first dissolved in 1 ml of acetone p.a. and then diluted to the desired concentration with acetone p.a. 250 μl of the solution are distributed homogeneously on the inner walls and base of a 25 ml test tube by turning and rocking on an orbital shaker (rocking rotation at 30 rpm for 2 h). With 900 ppm active ingredient solution and internal surface 44.7 cm^2, given homogeneous distribution, an area-based dose of 5 μg/cm^2 is achieved.
After the solvent has evaporated off, the tubes are populated with 5-10 adult dog ticks (Rhipicephalus sanguineus), sealed with a perforated plastic lid and incubated in a horizontal position in the dark at room temperature and ambient humidity. After 48 h, efficacy is determined. To this end, the ticks are knocked to the floor of the tube and incubated on a hotplate at 45-50° C. for not more than 5 min. Ticks which remain motionless on the floor or move in such an uncoordinated manner that they are unable to deliberately avoid the heat by climbing upwards are considered to be dead or moribund.
An efficacy of 100% means that all the ticks were dead or moribund. 0% efficacy means that none of the ticks had been harmed.

[2] = test system: Boophilus microplus; experiment: Boophilus microplus injection test; settings: application rate 20 μg/animal; injection into abdomen; assessed after 7 days
Method: Boophilus microplus—Injection Test
(§2) Solvent: dimethyl sulphoxide
To produce an appropriate active ingredient formulation, 10 mg of active ingredient are mixed with 0.5 ml of solvent and the concentrate is diluted with solvent to the desired concentration.
1 μl of the active ingredient solution is injected into the abdomen of 5 engorged adult female cattle ticks (Boophilus microplus). The animals are transferred into dishes and kept in a climate-controlled room.
Efficacy is assessed after 7 days by laying of fertile eggs. Eggs which are not visibly fertile are stored in a climate-controlled cabinet until the larvae hatch after about 42 days. An efficacy of 100% means that none of the ticks has laid any fertile eggs; 0% means that all the eggs are fertile.

[3] = test system: Ctenocephalides felis; experiment: Ctenocephalides felis oral test; settings: application rate 100 ppm in citrated cattle blood; after 2 days
Method: Ctenocephalides felis—Oral Test
as §2
For the purpose of producing an appropriate active ingredient formulation, 10 mg of active ingredient are mixed with 0.5 ml of dimethyl sulphoxide. Dilution with citrated cattle blood gives the desired concentration.
About 20 unfed adult cat fleas (Ctenocephalides felis) are placed into a chamber which is closed at the top and bottom with gauze. A metal cylinder whose bottom end is closed with parafilm is placed onto the chamber. The cylinder contains the blood/active ingredient preparation, which can be imbibed by the fleas through the parafilm membrane.
After 2 days, the kill in % is determined. 100% means that all of the fleas have been killed; 0% means that none of the fleas have been killed.

[4] = test system: Lucilia cuprina; experiment: Lucilia cuprina test; settings: application rate 100 ppm; L1 larvae; after 2 days
Method: as §2
(§3) To produce an appropriate active ingredient formulation, 10 mg of active ingredient are mixed with 0.5 ml of dimethyl sulphoxide, and the concentrate is diluted with water to the desired concentration.
About 20 L1 larvae of the Australian sheep blowfly (Lucilia cuprina) are transferred into a test vessel containing minced horsemeat and the active ingredient preparation of the desired concentration.
After 2 days, the kill in % is determined. 100% means that all the larvae have been killed and 0% means that none of the larvae have been killed.

[5] = test system: Musca domestica; experiment: Musca domestica test; settings: application rate 100 ppm; adult houseflies; after 2 days
Method: as §2, §3
Vessels containing a sponge treated with sugar solution and the active ingredient formulation of the desired concentration are populated with 10 adult houseflies (Musca domestica).
After 2 days, the kill in % is determined. 100% means that all of the flies have been killed; 0% means that none of the flies have been killed.

[6] = test system: Phaedon cochleariae; experiment: Phaedon cochleariae spray test; settings: application rate 100 g/ha; larvae; after 7 days
Method: Phaedon cochleariae—Spray Test
(§4) To produce an appropriate active ingredient formulation, 1 part by weight of active ingredient is dissolved using the specified parts by weight of solvent and made up with water containing an emulsifier concentration of 1000 ppm until the desired concentration is attained. To produce further test concentrations, the preparation is diluted with emulsifier-containing water.
Discs of Chinese cabbage leaves (Brassica pekinensis) are sprayed with an active ingredient formulation of the desired concentration and, after drying, populated with larvae of the mustard beetle (Phaedon cochleariae).
After 7 days, efficacy in % is determined. 100% means that all the beetle larvae have been killed; 0% means that no beetle larvae have been killed.

[7] = test system: Spodoptera frugiperda; experiment: Spodoptera frugiperda spray test; settings: application rate 100 g/ha; caterpillars; after 7 days
Method: Spodoptera frugiperda—Spray Test
as §4
Leaf discs of maize (Zea mays) are sprayed with an active ingredient formulation of the desired concentration and, after drying, populated with caterpillars of the armyworm (Spodoptera frugiperda).
After 7 days, efficacy in % is determined. 100% means that all the caterpillars have been killed; 0% means that no caterpillars have been killed.

[8] = test system: Ctenocephalides felis; experiment: Ctenocephalides felis in vitro contact test with adult cat fleas; settings: application rate 5 μg/cm^2 (500 g/ha); after 48 h; fleas dead or moribund
Method: Ctenocephalides felis—In Vitro Contact Tests with Adult Cat Fleas
as §1
After the solvent has evaporated off, the tubes are populated with 5-10 adult cat fleas (Ctenocephalides felis), sealed with a perforated plastic lid and incubated in a horizontal position at room temperature and ambient humidity. After 48 h, efficacy is determined. To this end, the test tubes are stood upright and the fleas are knocked to the base of the tube. Fleas which remain motionless at the base or move in an uncoordinated manner are considered to be dead or moribund.
100% efficacy means that all the fleas were dead or moribund. 0% efficacy means that no fleas were harmed.

[9] = test system: Tetranychus urticae; experiment: Tetranychus urticae spray test, OP-resistant; settings: application rate 100 g/ha; after 6 days
Method: Tetranychus urticae—Spray Test, OP-Resistant
as §4
Discs of bean leaves (Phaseolus vulgaris) infested by all stages of the greenhouse red spider mite (Tetranychus urticae) are sprayed with an active ingredient formulation of the desired concentration.
After 6 days, efficacy in % is determined. 100% means that all the spider mites have been killed; 0% means that none of the spider mites have been killed.

SMILES	efficacy [1] [%]	efficacy (laying of fertile eggs) [2] [%]	efficacy (kill in %) [3] [%]	efficacy (kill in %) [4] [%]	efficacy (kill in %) [5] [%]	efficacy [6] [%]	efficacy [7] [%]	efficacy [8] [%]	efficacy [9] [%]
Cn1nc(C(F)(F)C(F)(F)F)c(C(F)(F)F)c1-n1cc(-c2cccc(NC(=O)C3CC3)c2)cn1 [Example 1-002]	100	100	100	100	100	100	83	–	–
Cn1nc(C(F)(F)C(F)(F)F)c(C(F)(F)F)c1-n1cc(-c2ccc(Cl)c(NC(=O)c3ccccc3)c2)cn1 [Example 1-023]	100	100	100	100	–	100	100	100	100
Cn1nc(C(F)(F)C(F)(F)F)c(C(F)(F)F)c1-n1cc(-c2ccc(F)c(NC(=O)C3(Cl)CC3)c2)cn1 [Example 1-032]	100	100	100	100	80	–	–	–	–
Cn1nc(C(F)(F)C(F)(F)F)c(C(F)(F)F)c1-n1cc(-c2ccc(F)c(NC(=O)c3ccc(F)cc3)c2F)cn1 [Example 1-039]	–	–	–	–	–	100	100	80	100
C[C@@H](F)C(=O)Nc1cc(-c2cnn(-c3c(C(F)(F)F)c(C(F)(F)C(F)(F)F)nn3C)c2)ccc1F [Example 1-066]	100	100	100	80	–	–	–	100	–
Cc1ccc(C(=O)Nc2cc(-c3cnn(-c4c(C(F)(F)F)c(C(F)(F)C(F)(F)F)nn4C)c3)ccc2F)s1 [Example 1-069]	100	100	100	100	–	100	100	100	90
Cn1nc(C(F)(F)C(F)(F)F)c(C(F)(F)F)c1-n1cc(-c2ccc(F)c(NC(=O)c3cccc(C#N)c3)c2)cn1 [Example 1-075]	100	100	100	100	100	–	–	–	–
Cn1nc(C(F)(F)C(F)(F)F)c(C(F)(F)F)c1-n1cc(-c2ccc(F)c(NC(=O)C3CCCC3)c2)cn1 [Example 1-077]	100	100	100	100	100	–	–	–	–
Cc1ccc2c(Cl)c(C(=O)Nc3cc(-c4cnn(-c5c(C(F)(F)F)c(C(F)(F)C(F)(F)F)nn5C)c4)ccc3F)sc2c1 [Example 1-083]	–	80	–	–	–	–	–	80	–
Cn1nc(C(F)(F)C(F)(F)F)c(C(F)(F)F)c1-n1cc(-c2ccc(F)c(NC(=O)c3cccnc3)c2)cn1 [Example 1-085]	100	100	100	100	–	100	83	100	100
Cc1cc(C(=O)Nc2cc(-c3cnn(-c4c(C(F)(F)F)c(C(F)(F)C(F)(F)F)nn4C)c3)ccc2F)ccc1F [Example 1-091]	100	100	100	100	–	100	100	100	100
COc1ccc(C(=O)Nc2cc(-c3cnn(-c4c(C(F)(F)F)c(C(F)(F)C(F)(F)F)nn4C)c3)ccc2F)cc1F [Example 1-095]	100	100	100	100	–	100	100	100	100
COc1cc(C(=O)Nc2cc(-c3cnn(-c4c(C(F)(F)F)c(C(F)(F)C(F)(F)F)nn4C)c3)ccc2F)ccc1C [Example 1-097]	100	100	100	100	–	100	100	100	100
Cn1nc(C(F)(F)C(F)(F)F)c(C(F)(F)F)c1-n1cc(-c2ccc(F)c(NC(=O)C(C)(C)c3cccc(Cl)c3)c2)cn1 [Example 1-119]	–	100	–	100	80	–	–	–	–
Cn1nc(C(F)(F)C(F)(F)F)c(C(F)(F)F)c1-n1cc(-c2ccc(F)c(NC(=O)Cc3ccc(F)cc3Cl)c2)cn1 [Example 1-126]	–	100	100	100	90	100	–	–	–
